Data from PubChem BioAssay AID328 (DTP/NCI, 2004).
Values joined by “and” are separate entries in the source; they are usually repeats but may differ in a detail not shown here. Equal entries are not always repeated. Inconclusive results and toxic doses are left out.

Test system: BDF1 mice, P388 leukemia ip, median survival T/C
Experiment: NCI In Vivo Anticancer Drug Screen. Data for tumor model P388 Leukemia (intraperitoneal) in B6D2F1 (BDF1) mice
Details: endpoint: median survival time, higher = longer survival
Procedure, shortened: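 T/C = treated-group survival ÷ vehicle-control survival; tumour transplanted into mice before dosing.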

[1] = dose: 25.0 mg/kg/injection, schedule: Q04DX003 (ip), vehicle: saline with Tween-80
[2] = dose: 50.0 mg/kg/injection, schedule: Q04DX003 (ip), vehicle: saline with Tween-80
[3] = dose: 100.0 mg/kg/injection, schedule: Q01DX009 (ip), vehicle: saline with Tween-80
[4] = dose: 100.0 mg/kg/injection, schedule: Q04DX003 (ip), vehicle: saline with Tween-80

SMILES: O=CC(NC(=O)N(CCCl)N=O)C(O)C(O)C(O)CO (stereo unspecified)
- T/C (dose: 1.3 mg/kg/injection, schedule: Q01DX009 (ip), vehicle: saline): 157 % of control
- T/C (dose: 2.0 mg/kg/injection, schedule: Q01DX009 (ip), vehicle: saline): 198 % of control
- T/C (dose: 3.0 mg/kg/injection, schedule: Q01DX009 (ip), vehicle: saline): 230 % of control
- T/C (dose: 4.5 mg/kg/injection, schedule: Q01DX009 (ip), vehicle: saline): 238 % of control
- T/C (dose: 6.48 mg/kg/injection, schedule: Q04DX003 (ip), vehicle: saline): 250 % of control
- T/C (dose: 6.7 mg/kg/injection, schedule: Q01DX009 (ip), vehicle: saline): 238 % of control
- T/C (dose: 6.8 mg/kg/injection, schedule: Q01DX009 (ip), vehicle: saline): 169 % of control
- T/C (dose: 10.0 mg/kg/injection, schedule: Q01DX009 (ip), vehicle: saline): 203 % of control
- T/C (dose: 10.8 mg/kg/injection, schedule: Q04DX003 (ip), vehicle: saline): 514 % of control
- T/C (dose: 13.0 mg/kg/injection, schedule: Q01DX001 (ip), vehicle: saline): 238 % of control and 211 % of control
- T/C (dose: 18.0 mg/kg/injection, schedule: Q04DX003 (ip), vehicle: saline): 262 % of control
- T/C (dose: 20.0 mg/kg/injection, schedule: Q01DX001 (ip), vehicle: saline): 237 % of control and 203 % of control
- T/C (dose: 30.0 mg/kg/injection, schedule: Q01DX001 (ip), vehicle: saline): 253 % of control and 95 % of control
- T/C (dose: 45.0 mg/kg/injection, schedule: Q01DX001 (ip), vehicle: saline): 254 % of control

SMILES: O=C1OC(c2ccccc2)=N/C1=C/c1cccs1
- T/C (dose: 100.0 mg/kg/injection, schedule: Q01DX009 (ip), vehicle: Klucel (hydroxypropylcellulose) (HPC)): 96 % of control
- T/C (dose: 200.0 mg/kg/injection, schedule: Q01DX009 (ip), vehicle: Klucel (hydroxypropylcellulose) (HPC)): 88 % of control
- T/C (dose: 400.0 mg/kg/injection, schedule: Q01DX009 (ip), vehicle: Klucel (hydroxypropylcellulose) (HPC)): 92 % of control

SMILES: Cc1cc2c(c3oc(C4(C)OC4C4OC4C)cc(=O)c13)C(=O)c1c(O)c(C3CC(C)(N(C)C)C(O)C(C)O3)cc(C3CC(N(C)C)C(O)C(C)O3)c1C2=O (stereo unspecified)
- T/C (dose: 0.01 mg/kg/injection, schedule: Q01DX009 (oral), vehicle: saline): 105 % of control
- T/C (dose: 0.03 mg/kg/injection, schedule: Q01DX009 (oral), vehicle: saline): 105 % of control
- T/C (dose: 0.06 mg/kg/injection, schedule: Q01DX001 (oral), vehicle: saline): 95 % of control
- T/C (dose: 0.06 mg/kg/injection, schedule: Q01DX009 (oral), vehicle: saline): 110 % of control
- T/C (dose: 0.06 mg/kg/injection, schedule: Q01DX010 (ip), vehicle: saline): 109 % of control
- T/C (dose: 0.12 mg/kg/injection, schedule: Q01DX001 (ip), vehicle: saline): 155 % of control
- T/C (dose: 0.12 mg/kg/injection, schedule: Q01DX001 (oral), vehicle: saline): 104 % of control
- T/C (dose: 0.12 mg/kg/injection, schedule: Q01DX009 (oral), vehicle: saline): 110 % of control
- T/C (dose: 0.24 mg/kg/injection, schedule: Q01DX001 (ip), vehicle: saline): 190 % of control
- T/C (dose: 0.24 mg/kg/injection, schedule: Q01DX001 (oral), vehicle: saline): 104 % of control
- T/C (dose: 0.48 mg/kg/injection, schedule: Q01DX001 (ip), vehicle: saline): 200 % of control
- T/C (dose: 0.48 mg/kg/injection, schedule: Q01DX001 (oral), vehicle: saline): 100 % of control
- T/C (dose: 0.1 micrograms/kg/injection, schedule: Q01DX010 (ip), vehicle: carboxymethylcellulose (CMC)): 95 % of control
- T/C (dose: 0.1 micrograms/kg/injection, schedule: Q01DX010 (ip), vehicle: other): 113 % of control
- T/C (dose: 0.2 micrograms/kg/injection, schedule: Q01DX010 (ip), vehicle: carboxymethylcellulose (CMC)): 95 % of control
- T/C (dose: 0.2 micrograms/kg/injection, schedule: Q01DX010 (ip), vehicle: other): 118 % of control
- T/C (dose: 0.3 micrograms/kg/injection, schedule: Q01DX010 (ip), vehicle: saline): 100 % of control
- T/C (dose: 0.3 micrograms/kg/injection, schedule: Q01DX010 (ip), vehicle: steriod suspending solution): 95 % of control
- T/C (dose: 0.5 micrograms/kg/injection, schedule: Q01DX010 (ip), vehicle: carboxymethylcellulose (CMC)): 104 % of control
- T/C (dose: 0.5 micrograms/kg/injection, schedule: Q01DX010 (ip), vehicle: other): 109 % of control
- T/C (dose: 0.5 micrograms/kg/injection, schedule: Q01DX010 (ip), vehicle: saline): 116 % of control
- T/C (dose: 0.6 micrograms/kg/injection, schedule: Q01DX010 (ip), vehicle: saline): 95 % of control
- T/C (dose: 0.6 micrograms/kg/injection, schedule: Q01DX010 (ip), vehicle: steriod suspending solution): 120 % of control
- T/C (dose: 1.0 micrograms/kg/injection, schedule: Q01DX010 (ip), vehicle: other): 109 % of control
- T/C (dose: 1.0 micrograms/kg/injection, schedule: Q01DX010 (ip), vehicle: saline): 120 % of control
- T/C (dose: 1.3 micrograms/kg/injection, schedule: Q01DX010 (ip), vehicle: saline): 122 % of control
- T/C (dose: 2.0 micrograms/kg/injection, schedule: Q01DX010 (ip), vehicle: other): 113 % of control
- T/C (dose: 4.0 micrograms/kg/injection, schedule: Q01DX010 (ip), vehicle: carboxymethylcellulose (CMC)): 118 % of control
- T/C (dose: 4.0 micrograms/kg/injection, schedule: Q01DX010 (ip), vehicle: saline): 159 % of control
- T/C (dose: 5.0 micrograms/kg/injection, schedule: Q01DX010 (ip), vehicle: carboxymethylcellulose (CMC)): 175 % of control
- T/C (dose: 5.0 micrograms/kg/injection, schedule: Q01DX010 (ip), vehicle: steriod suspending solution): 150 % of control
- T/C (dose: 6.0 micrograms/kg/injection, schedule: Q01DX009 (ip), vehicle: saline): 155 % of control
- T/C (dose: 8.0 micrograms/kg/injection, schedule: Q01DX010 (ip), vehicle: saline): 163 % of control
- T/C (dose: 10.0 micrograms/kg/injection, schedule: Q01DX010 (ip), vehicle: carboxymethylcellulose (CMC)): 190 % of control
- T/C (dose: 10.0 micrograms/kg/injection, schedule: Q01DX010 (ip), vehicle: steriod suspending solution): 160 % of control
- T/C (dose: 12.0 micrograms/kg/injection, schedule: Q01DX009 (ip), vehicle: saline): 170 % of control
- T/C (dose: 16.0 micrograms/kg/injection, schedule: Q01DX010 (ip), vehicle: saline): 118 % of control
- T/C (dose: 20.0 micrograms/kg/injection, schedule: Q01DX010 (ip), vehicle: saline): 154 % of control
- T/C (dose: 20.0 micrograms/kg/injection, schedule: Q01DX010 (ip), vehicle: steriod suspending solution): 180 % of control
- T/C (dose: 30.0 micrograms/kg/injection, schedule: Q01DX010 (ip), vehicle: saline): 109 % of control
- T/C (dose: 32.0 micrograms/kg/injection, schedule: Q01DX010 (ip), vehicle: other): 177 % of control
- T/C (dose: 60.0 micrograms/kg/injection, schedule: Q01DX010 (ip), vehicle: saline): 86 % of control

SMILES: Nc1nc(F)nc2nc[nH]c12
- T/C (dose: 10.0 mg/kg/injection, schedule: Q01DX009 (ip), vehicle: Klucel (hydroxypropylcellulose) (HPC)): 121 % of control
- T/C (dose: 20.0 mg/kg/injection, schedule: Q01DX009 (ip), vehicle: Klucel (hydroxypropylcellulose) (HPC)): 121 % of control

SMILES: CC(=O)Nc1ccc(NC2=NCCO2)cc1
- T/C (dose: 50.0 mg/kg/injection, schedule: Q01DX001 (ip), vehicle: saline with Tween-80): 100 % of control
- T/C (dose: 100.0 mg/kg/injection, schedule: Q01DX001 (ip), vehicle: saline with Tween-80): 95 % of control
- T/C (dose: 200.0 mg/kg/injection, schedule: Q01DX001 (ip), vehicle: saline with Tween-80): 90 % of control

SMILES: CC1(C)c2ccccc2C2C1C1(Cl)C(=O)C2(Cl)C(Cl)=C1Cl (stereo unspecified)
- T/C (dose: 100.0 mg/kg/injection, schedule: Q04DX003 (ip), vehicle: saline sonified): 100 % of control
- T/C (dose: 200.0 mg/kg/injection, schedule: Q04DX003 (ip), vehicle: saline sonified): 95 % of control
- T/C (dose: 400.0 mg/kg/injection, schedule: Q04DX003 (ip), vehicle: saline sonified): 100 % of control

SMILES: CCCCN1CCC2(CC1)COCc1ccccc12
- T/C (dose: 12.5 mg/kg/injection, schedule: Q04DX003 (ip), vehicle: saline with Tween-80): 104 % of control
- T/C [1]: 98 % of control
- T/C [2]: 95 % of control

SMILES: COC(=O)c1ccc(CSc2ccccc2NC(=S)Nc2cccc(C(F)(F)F)c2)o1
- T/C (dose: 200.0 mg/kg/injection, schedule: Q01DX009 (ip), vehicle: saline with Tween-80): 90 % of control

SMILES: COc1ccc(/C=N/NC(=O)C[n+]2ccccc2)c(OC)c1
- T/C (dose: 25.0 mg/kg/injection, schedule: Q01DX009 (ip), vehicle: saline with Tween-80): 104 % of control
- T/C [1]: 118 % of control
- T/C (dose: 50.0 mg/kg/injection, schedule: Q01DX009 (ip), vehicle: saline with Tween-80): 109 % of control
- T/C [2]: 104 % of control
- T/C [3]: 100 % of control
- T/C [4]: 104 % of control

SMILES: CC(C)NCC(=O)c1ccc(O)c(O)c1
- T/C [3]: 109 % of control
- T/C [4]: 100 % of control
- T/C (dose: 200.0 mg/kg/injection, schedule: Q04DX003 (ip), vehicle: saline with Tween-80): 100 % of control
- T/C (dose: 400.0 mg/kg/injection, schedule: Q04DX003 (ip), vehicle: saline with Tween-80): 100 % of control
